From US20120165331A1, “Di/tri-aza-spiro-C9-C11alkanes” (priority 2010, published 2012)

Experiments:
human orexin 1 receptor = target: T1, human orexin 1 receptor (Homo sapiens, UniProt O43613); test: Calcium accumulation in cells (FLIPR), antagonism of orexin A, human orexin 1 receptor; type: cell-based; details: for Ki: calcium accumulation, antagonism of orexin A, Cheng-Prusoff corrected, read-out: FLIPR hOx1R Ki; for inhibition at 10 µM: measured at a concentration of 10 μM of compound, read-out: FLIPR hOx1R % inhibition
T1 construct: expressed in transfected cells
T1 sequence (O43613 1-425): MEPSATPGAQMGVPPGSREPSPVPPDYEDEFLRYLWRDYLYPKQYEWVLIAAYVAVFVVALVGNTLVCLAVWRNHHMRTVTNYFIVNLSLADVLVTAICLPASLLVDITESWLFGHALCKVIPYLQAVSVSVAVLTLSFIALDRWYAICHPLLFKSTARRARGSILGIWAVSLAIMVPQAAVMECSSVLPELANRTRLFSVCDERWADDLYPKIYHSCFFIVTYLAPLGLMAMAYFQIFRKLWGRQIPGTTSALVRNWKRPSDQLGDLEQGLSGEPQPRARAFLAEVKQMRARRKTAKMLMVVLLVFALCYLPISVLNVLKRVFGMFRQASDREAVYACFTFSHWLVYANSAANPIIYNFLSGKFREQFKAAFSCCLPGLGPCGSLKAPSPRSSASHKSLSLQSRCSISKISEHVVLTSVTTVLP
Procedure: (§1) Calcium Accumulation in Cells (FLIPR):
(§2) Cells expressing human orexin 1 or human orexin 2 receptors, were seeded at 8,000 cells/well in 384 well black-walled clear bottom, poly-D-lysine coated plates. After 24 h, the medium was removed and cells were washed once with phosphate buffered saline and serum-deprived overnight in assay buffer (130 mM NaCl, 5.4 mM KCl, 1.8 mM CaCl2, 0.8 mM MgSO4, 0.9 mM NaH2PO4, 25 mM glucose, 20 mM HEPES, pH 7.4) containing bovine serum albumin (1% w/v).
(§3) On the day of the experiment, the cells seeded in black plates were treated with assay buffer containing the Ca^2+ sensitive fluorescent dye Fluo-4-AM (2 μM), and probenecid (0.1 mM). After 1 h plates were washed twice with, and resuspended in, assay buffer containing probenecid (0.1 mM) using a multi plate washer. The plates were placed into a FLIPR II (Fluorometric Imaging Plate Reader, Molecular Devices, Sunnyvale, Calif., USA) and baseline fluorescence (fluorescence light units, FLU) was measured (5 measurements, 2 S each; laser excitation 488 nm at 0.6-1 W, CCD camera exposure 0.4 s) before addition of buffer alone (basal) or containing test compounds (either compound of formula I alone, agonist alone or agonist in the presence of various concentrations of compounds of formula I). Fluorescence measurements were then continued every 1 S for 120 S followed by every 4 S for 240 S.
(§4) The measurements were typically made in two sequences:
(§5) Compounds of formula I were tested usually in a concentration range from 10^−9 M to 10^−5 M.
(§6) In the second round, performed one hour later (to allow for equilibration), Orexin A was tested either in the absence (calibration curves, Orexin A agonist controls) or in the presence of compounds of formula Ito determine antagonism.
(§7) Inhibition data is expressed in Table 1 as Kd [μM], converted by the Cheng and Prusoff correction (Kd=IC50/1+(L/EC50)), where IC50 is the 50% inhibition value determined in concentration response inhibition curves, EC50 is the half maximal activation concentration determined for orexin A in concentration response curves and L is the concentration of orexin A used in inhibition experiments performed in with a submaximal concentration of orexin A in the presence of up to 8 increasing concentrations of compound of formula I. Inhibition data is also expressed in Table 1 as % inhibition value measured at a concentration of 10 μM of selected compounds of formula I.

human orexin 2 receptor = target: T2, human orexin 2 receptor (Homo sapiens, UniProt O43614); test: Calcium accumulation in cells (FLIPR), antagonism of orexin A, human orexin 2 receptor; type: cell-based; details: calcium accumulation, antagonism of orexin A, Cheng-Prusoff corrected; read-out: FLIPR hOx2R Ki
T2 construct: expressed in transfected cells
T2 sequence (O43614 1-444): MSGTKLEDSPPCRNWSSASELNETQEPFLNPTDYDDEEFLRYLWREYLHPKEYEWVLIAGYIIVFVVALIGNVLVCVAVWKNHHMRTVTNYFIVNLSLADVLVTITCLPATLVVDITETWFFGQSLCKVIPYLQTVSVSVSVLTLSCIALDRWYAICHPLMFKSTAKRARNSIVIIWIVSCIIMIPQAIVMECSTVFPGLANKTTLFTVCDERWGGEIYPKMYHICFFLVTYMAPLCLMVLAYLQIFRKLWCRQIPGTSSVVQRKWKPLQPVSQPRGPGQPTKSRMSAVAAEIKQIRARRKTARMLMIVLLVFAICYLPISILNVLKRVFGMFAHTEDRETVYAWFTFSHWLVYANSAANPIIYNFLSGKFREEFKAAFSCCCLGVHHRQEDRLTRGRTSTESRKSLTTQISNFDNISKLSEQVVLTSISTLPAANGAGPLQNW
Procedure: as §1, §2, §3, §4, §5, §6, §7

| SMILES | Ki (human orexin 1 receptor) [µM] | Ki (human orexin 2 receptor) [µM] | inhibition at 10 µM (human orexin 1 receptor) [%] |
| --- | --- | --- | --- |
| Cc1cc(C)nc(N2CCC3(CC2)C(=O)N(Cc2c[nH]c4ccccc24)CCN3C)n1 [Example 1.2, 4-((1H-indol-3-yl)methyl)-9-(4,6-dimethylpyrimidin-2-yl)-1-methyl-1,4,9-triazaspiro[5.5]undecan-5-one] | 3.65 | 0.449 | – |
| Cc1cc(C)nc(N2CCC3(CC2)NCCN(Cc2nn(C)cc2-c2ccccc2)C3=O)n1 [Example 1.3, 9-(4,6-Dimethyl-pyrimidin-2-yl)-4-(1-methyl-4-phenyl-1H-pyrazol-3-ylmethyl)-1,4,9-triaza-spiro[5.5]undecan-5-on] | – | 0.334 | 35 |
| Cc1ccnc(N2CCC3(CC2)NCCN(Cc2c[nH]c4ccccc24)C3=O)n1 [Example 1.6, 4-((1H-Indol-3-yl)methyl)-9-(4-methylpyrimidin-2-yl)-1,4,9-triazaspiro[5.5] undecan-5-one] | – | 0.222 | 26 |
| COc1ccnc(N2CCC3(CC2)NCCN(Cc2c[nH]c4ccccc24)C3=O)n1 [Example 1.7, 4-((1H-Indol-3-yl)methyl)-9-(4-methoxypyrimidin-2-yl)-1,4,9-triazaspiro[5.5] undecan-5-one] | – | 0.101 | 35 |
| COc1cccc(-c2oc(C)nc2CN2CCNC3(CCN(c4nccc(C)n4)CC3)C2=O)c1 [Example 1.15, 4-((5-(3-Methoxyphenyl)-2-methyloxazol-4-yl)methyl)-9-(4-methylpyrimidin-2-yl)-1,4,9-triazaspiro[5.5] undecan-5-one] | – | 0.107 | 44 |
| Cc1cc(C)nc(N2CCC3(CC2)NCCN(Cc2nc(C)oc2-c2ccccc2)C3=O)n1 [Example 1.19, 9-(4,6-Dimethyl-pyrimidin-2-yl)-4-((2-methyl-5-phenyloxazol-4-yl)methyl)-1,4,9-triazaspiro[5.5] undecan-5-one] | 2.65 | 0.25 | – |
| Cc1ccnc(N2CCC3(CC2)NCCN(Cc2nc(C)oc2-c2ccccc2)C3=O)n1 [Example 1.20, 9-(4-Methyl-pyrimidin-2-yl)-4-((2-methyl-5-phenyloxazol-4-yl)methyl)-1,4,9-triazaspiro[5.5] undecan-5-one] | – | 1.84 | 12 |
| Cc1cc(C#N)nc(N2CCC3(CC2)NCCN(Cc2nc(C)oc2-c2ccccc2)C3=O)n1 [Example 1.21, 6-Methyl-2-(4-((2-methyl-5-phenyloxazol-4-yl)methyl)-5-oxo-1,4,9-triazaspiro[5.5]undecan-9-yl) pyrimidine-4-carbonitrile] | – | 0.337 | 29 |
| COc1ccnc(N2CCC3(CC2)NCCN(Cc2nc(C)oc2-c2ccccc2)C3=O)n1 [Example 1.22, 9-(4-Methoxy-pyrimidin-2-yl)-4-((2-methyl-5-phenyloxazol-4-yl)methyl)-1,4,9-triazaspiro[5.5] undecan-5-one] | – | 1.02 | 19 |
| COc1cc(C)nc(N2CCC3(CC2)NCCN(Cc2nc(C)oc2-c2ccccc2)C3=O)n1 [Example 1.23, 9-(4-Methoxy-6-methylpyrimidin-2-yl)-4-((2-methyl-5-phenyloxazol-4-yl)methyl)-1,4,9-triazaspiro[5.5] undecan-5-one] | 2.11 | 0.192 | – |
| COCc1cccc(-c2ocnc2CN2CCNC3(CCN(c4nc(C)cc(C#N)n4)CC3)C2=O)c1 [Example 1.28, 2-(4-((5-(3-(Methoxymethyl)phenyl)oxazol-4-yl)methyl)-5-oxo-1,4,9-triazaspiro[5.5]undecan-9-yl)-6-methylpyrimidine-4-carbonitrile] | – | 0.511 | 33 |
| COCc1cccc(-c2oc(C)nc2CN2CCNC3(CCN(c4nc(C)cc(C#N)n4)CC3)C2=O)c1 [Example 1.31, 2-(4-((5-(3-(Methoxymethyl)phenyl)-2-methyl-oxazol-4-yl)methyl)-5-oxo-1,4,9-triazaspiro[5.5]undecan-9-yl)-6-methylpyrimidine-4-carbonitrile] | – | 0.064 | 38 |
| COCc1cccc(-c2oc(C)nc2CN2CCNC3(CCN(c4nc(C)cc(OC)n4)CC3)C2=O)c1 [Example 1.32, 9-(4-Methoxy-6-methylpyrimidin-2-yl)-4-((5-(3-(methoxymethyl)phenyl)-2-methyl-oxazol-4-yl)methyl)-1,4,9-triazaspiro[5.5] undecan-5-one] | 2.84 | 0.084 | – |
| COc1ccc(-c2cn(C)nc2CN2CCNC3(CCN(c4nc(C)cc(C)n4)CC3)C2=O)cc1OC [Example 1.35, 4-((4-(3,4-Dimethoxyphenyl)-1-methyl-1H-pyrazol-3-yl)methyl)-9-(4,6-dimethylpyrimidin-2-yl)-1,4,9-triazaspiro[5.5] undecan-5-one] | – | 0.4 | 25 |
| COc1ccc(-c2cn(C)nc2CN2CCNC3(CCN(c4nc(C)cc(C)n4)CC3)C2=O)cc1 [Example 1.36, 9-(4,6-Dimethyl-pyrimidin-2-yl)-4-((4-(4-methoxyphenyl)-1-methyl-1H-pyrazol-3-yl)methyl)-1,4,9-triazaspiro[5.5] undecan-5-one] | – | 0.187 | 41 |
| COc1cc(OC)cc(-c2cn(C)nc2CN2CCNC3(CCN(c4nc(C)cc(C)n4)CC3)C2=O)c1 [Example 1.37, 4-((4-(3,5-Dimethoxyphenyl)-1-methyl-1H-pyrazol-3-yl)methyl)-9-(4,6-dimethylpyrimidin-2-yl)-1,4,9-triazaspiro[5.5] undecan-5-one] | – | 2.33 | 40 |
| Cc1cccc(-c2cn(C)nc2CN2CCNC3(CCN(c4nc(C)cc(C)n4)CC3)C2=O)c1 [Example 1.38, 9-(4,6-Dimethyl-pyrimidin-2-yl)-4-((1-methyl-4-(m-tolyl)-1H-pyrazol-3-yl)methyl)-1,4,9-triazaspiro[5.5] undecan-5-one] | – | 0.204 | 29 |
| Cc1cc(C)nc(N2CCC3(CC2)NCCN(Cc2nn(C)cc2-c2cccc(F)c2)C3=O)n1 [Example 1.43, 9-(4,6-Dimethyl-pyrimidin-2-yl)-4-((4-(3-fluorophenyl)-1-methyl-1H-pyrazol-3-yl)methyl)-1,4,9-triazaspiro[5.5] undecan-5-one] | – | 0.447 | 27 |
| Cc1cc(C)nc(N2CCC3(CC2)NCCN(Cc2nn(C)cc2-c2cccc(C#N)c2)C3=O)n1 [Example 1.44, 3-(3-((9-(4,6-Dimethylpyrimidin-2-yl)-5-oxo-1,4,9-triazaspiro[5.5]undecan-4-yl)methyl)-1-methyl-1H-pyrazol-4-yl)benzonitrile] | – | 1.49 | 12 |
| O=C1N(Cc2ccccc2-c2ccccc2)CCC12CCN(c1nc3ccccc3s1)CC2 [Example 3.10, 8-(Benzo[d]thiazol-2-yl)-2-(biphenyl-2-ylmethyl)-2,8-diazaspiro[4.5]decan-1-one] | – | 1.08 | – |
